Experimental data published in US8709718B1, “Method of treating lung cancer” (Max-Planck-Gesellschaft zur Forderung der Wissenschaften …, priority 2011, dated 2014).

What was measured:
[1] = test system: phospho-ERK, phospho-AKT in FGFR1-amplified tumors; test: Immunohistochemical staining of explanted tumors; type: in vivo, mice; settings: end of treatment
Description: Mice bearing FGFR1-amplified tumors were sacrificed at the end of treatment. Tumors were exgrafted and embedded in paraffin. […] Antibodies recognizing pAKT, pERK, AKT and ERK were obtained from Cell signaling.

[2] = test system: lung cancer cells carrying amplified FGFR1; test: Apoptosis by Annexin V/PI flow cytometry; type: cell-based; settings: 1.0 μM, 72 hours, versus DMSO; specifically in FGFR1-amplified cells; p=0.008
Protocol: Finally the cells were analyzed on a FACS Canto FlowCytometer (BD Biosciences).

[3] = test system: 83 lung cancer cell lines; test: Cell-line screening, viability by cellular ATP content (CellTiter-Glo); type: cell-based
[4] = test system: FGFR1 amplified cell line H520; test: FGFR1 phosphorylation by immunoprecipitation; type: cell-based; settings: H520, 1 μM
Protocol: For the detection of FGFR1 phosphorylation, whole-cell lysates (0.5-1 mg) in NP40 lysis buffer was incubated with agarose A/G Plus preconjugated with the FGFR1 antibody. Immunoprecipitates were washed in NP40 lysis buffer, boiled in sample buffer, and subjected to SDS-PAGE followed by immunoblotting using an anti phospho-tyrosine residues antibody to detect specific phosphorylation of FGFR1.

[5] = Pharmacokinetics of PD173074 in mice; type: in vivo
Protocol: Pharmacokinetic data were created by taking blood-samples from male nude mice by puncture of the tail-vein under isoflurane anesthesia. […] All blood samples were centrifuged; the blood plasma-containing supernatant was extracted and stored at -20° C. Analytic samples were prepared from the blood plasma by acetonitrile extraction with an internal standard of 1 μM griseofulvin. […] Pharmacokinetic data was evaluated with WinNonlin Software (Pharsight).

[6] = test system: FGFR1-amplified cell lines; test: Soft-agar colony formation assay; type: cell-based; settings: FGFR1-amplified cells
Protocol: Cells were suspended in growth media containing 10% FCS and 0.6% agar and plated in triplicate on 50 μl solidified growth medium (10% FCS; 1.0% agar). Growth medium containing indicated compound concentrations was added on top. Colonies were analyzed using the Scanalyzer imaging system (Lemnatec, Germany).

[7] = test system: FGFR1-amplified cells (H1581, H520); test: Immunoblotting of phosphorylated FGFR and downstream molecules; type: cell-based
Description: (§1) The following antibodies were used for immunoblotting: β-actin (MPBioscience), phospho-FGFR(Y653, Y654), pFRS2 (Tyr196), p-AKT (S473), pS6, S6, AKT, p-ERK, ERK (Cell Signaling Technology), total-FGFR1 (Santa Cruz), anti-rabbit-HRP, anti-mouse-HRP-antibody (Millipore).

[8] = test system: EGFR-mutant cell line HCC827; test: as above; type: cell-based
Description: as §1

[9] = test system: FGFR1-amplified lung cancer cells expressing FGFR1^V561M; settings: 0.5 μM and 1.0 μM
Description: The V561M mutation was introduced into FGFR1 cloned in pBABE-Puro by site-directed mutagenesis. Replication-incompetent retroviruses were produced by contransfection with the pCL-ampho plasmid in HEK 293T cells. Hairpin shRNA targeting the different genes were ordered from Sigma. Replication-incompetent lentiviruses were produced from pLKO.1-Puro based vectors by contransfection with Δ8.9 and pMGD2 in 293T cells as described previously (Sos et al., Cancer Res 70, 868-874 (2010)). After transduction cells were selected with puromycin (1.5 μg/ml) and five days after selection cells were counted using trypan blue.

[10] = test system: H1581 cells; test: Xenograft mouse model, FGFR1-amplified H1581 cells; type: in vivo; settings: 100 mg/kg twice a day, oral gavage, mice engrafted with FGFR1-amplified cells
Protocol: (§2) All animal procedures were approved by the local animal protection committee and the local authorities. 5*10^6 tumor cells were injected subcutaneously into male nude mice.

[11] = test system: PDGFRA- and FGFR1-amplified cell line H1703; settings: 96 h of compound treatment, increasing concentrations
Protocol: Viability was determined after 96 hours by measuring cellular ATP content (CellTiter-Glo, Promega). Half-maximal inhibitory concentrations (GI50) were determined using the statistical data analysis software “R” with the package “ic50”.

[12] = test system: H1975 (FGFR1 wild type) cells; test: Xenograft mouse model, EGFR-mutant H1975 cells; type: in vivo, mice; settings: xenografted EGFR-mutant H1975 cells
Protocol: as §2

[13] = target: FGFR1 (Homo sapiens, UniProt P11362); settings: FGFR1 one of only two of 105 kinases
Sequence of FGFR1 (P11362 22-822): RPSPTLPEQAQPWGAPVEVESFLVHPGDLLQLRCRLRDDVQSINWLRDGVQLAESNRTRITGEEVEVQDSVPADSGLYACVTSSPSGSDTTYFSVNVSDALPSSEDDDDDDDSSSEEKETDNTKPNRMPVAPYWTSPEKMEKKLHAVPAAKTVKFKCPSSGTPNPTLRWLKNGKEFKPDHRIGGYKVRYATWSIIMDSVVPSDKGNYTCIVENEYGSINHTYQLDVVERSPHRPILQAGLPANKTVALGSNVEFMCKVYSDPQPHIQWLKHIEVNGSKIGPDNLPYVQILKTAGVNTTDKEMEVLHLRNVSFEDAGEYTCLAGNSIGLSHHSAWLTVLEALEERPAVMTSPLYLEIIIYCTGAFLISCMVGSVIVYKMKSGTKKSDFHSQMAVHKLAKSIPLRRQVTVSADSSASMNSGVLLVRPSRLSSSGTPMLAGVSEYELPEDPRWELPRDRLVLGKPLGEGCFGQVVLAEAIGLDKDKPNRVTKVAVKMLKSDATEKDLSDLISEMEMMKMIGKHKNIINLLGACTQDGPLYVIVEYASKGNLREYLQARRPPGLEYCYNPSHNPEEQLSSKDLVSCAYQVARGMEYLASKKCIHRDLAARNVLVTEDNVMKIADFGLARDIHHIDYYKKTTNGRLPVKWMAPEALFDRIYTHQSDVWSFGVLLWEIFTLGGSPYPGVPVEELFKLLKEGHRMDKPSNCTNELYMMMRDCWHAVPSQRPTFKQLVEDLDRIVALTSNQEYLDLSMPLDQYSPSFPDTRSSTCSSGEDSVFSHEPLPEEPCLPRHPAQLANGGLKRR

CCN(CC)CCCCNc1ncc2cc(-c3cc(OC)cc(OC)c3)c(NC(=O)NC(C)(C)C)nc2n1 [PD173074]
levels of phospho-AKT in explanted tumors [1]: not of phospho-AKT | levels of phospho-ERK in explanted tumors [1]: reduction in the levels of phospho-ERK | induction of apoptosis [2]: induced apoptosis | sensitivity of FGFR1-amplified cell line H520 ([3]; H520, derived from a squamous-cell lung cancer patient): sensitive | GI50 ([3]; four of the 83 lung cancer cell lines tested, viability after 96 hours, read-out: half-maximal growth inhibitory concentration (GI50)): < 1000 nM | growth inhibition ([3]; specifically in lung cancer cells carrying amplified FGFR1, p=0.0002): inhibited growth | phosphorylation of FGFR1 (phosphotyrosine after immunoprecipitation) [4]: leads to dephosphorylation of FGFR1 | exposure ([5]; 50 mg/kg twice a day compared to 100 mg/kg twice a day): only a minimal exposure | half-life in vivo ([5]; mice): short half-life | colony formation in soft agar [6]: decreased colony formation | levels of phosphorylated FGFR1 [7]: reduced the levels of phosphorylated FGFR1 | phosphorylation of ERK [7]: inhibition of phosphorylation of ERK | levels of phosphorylated FGFR1 and FRS2 [8]: not in the EGFR-mutant cell line HCC827 | cytotoxicity and dephosphorylation of FGFR on expression of FGFR1^V561M [9]: abolished | tumor size [10]: tumor shrinkage | activity on viability of H1703 cells [11]: not active | tumor regression [12]: did not show signs of regression | kinase inhibition [13]: strongly inhibited
